Several values for one entry are separate records, joined by “and”; a condition that tells them apart may be missing. Equal values may be shown once.
How the values were obtained:
Conditions in all cases: incubation time: 72 h
CAL-85-1 = assay: drug sensitivity score (DSS), CellTiter-Blue viability (DSS (AUC-based score)); higher = stronger viability inhibition; extreme values may be limits of the assay
Description: (§1)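 DSRT with the CellTiter-Blue (resazurin reduction) viability readout, fluorescence 560/590 nm, 72 h incubation. Plates were normalised to DMSO and benzethonium chloride controls. DSS is computed from the area under the fitted dose-response curve (5 or 9 concentrations).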

DU-4475 = assay: as above
Description: as §1

Hs578T = assay: as above
Description: as §1

MDA-MB-231 [1] = assay: as above
Description: as §1

HCC1599 = assay: as above
Description: as §1

MDA-MB-453 [2] = assay: as above
Description: as §1

CAL-148 [3] = assay: as above
Description: as §1

SK-BR-3 [4] = assay: as above
Description: as §1

BT-474 = assay: as above
Description: as §1

BT-549 = assay: as above
Description: as §1

MDA-MB-436 = assay: as above
Description: as §1

CAL-51 [5] = assay: as above
Description: as §1

CAL-120 [6] = assay: as above
Description: as §1

HCC1143 = assay: as above
Description: as §1

MFM-223 = assay: as above
Description: as §1

HCC1937 = assay: as above
Description: as §1

HDQ-P1 [7] = assay: as above
Description: as §1

MDA-MB-468 [8] = assay: as above
Description: as §1

CAL-51 [9] = assay: normalised viability (% of control), CellTiter-Blue; higher = more viable cells (about 100 = DMSO control)
Description: (§2)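 DSRT, CellTiter-Blue viability, 72 h incubation. Signal is normalised to DMSO and benzethonium chloride controls. Value is the normalised response at dose 8.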

HDQ-P1 [10] = assay: as above
Description: as §2

MDA-MB-231 [11] = assay: normalised viability (% of control), CellTiter-Blue; higher = more viable cells (100 = DMSO, 0 = benzethonium chloride kill control)
Description: (§3)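 DSRT, CellTiter-Blue viability, 72 h incubation. Signal is normalised to DMSO and benzethonium chloride controls. Value is the normalised response at dose 1.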

MDA-MB-453 [12] = assay: as above
Description: as §3

CAL-148 [13] = assay: as above
Description: as §3

SK-BR-3 [14] = assay: as above
Description: as §3

CAL-120 [15] = assay: as above
Description: as §3

MDA-MB-468 [16] = assay: as above
Description: as §3

| Compound | drug sensitivity score (CAL-85-1) | drug sensitivity score (DU-4475) | drug sensitivity score (Hs578T) | drug sensitivity score (MDA-MB-231 [1]) | drug sensitivity score (HCC1599) | drug sensitivity score (MDA-MB-453 [2]) | drug sensitivity score (CAL-148 [3]) | drug sensitivity score (SK-BR-3 [4]) | drug sensitivity score (BT-474) | drug sensitivity score (BT-549) | drug sensitivity score (MDA-MB-436) | drug sensitivity score (CAL-51 [5]) | drug sensitivity score (CAL-120 [6]) | drug sensitivity score (HCC1143) | drug sensitivity score (MFM-223) | drug sensitivity score (HCC1937) | drug sensitivity score (HDQ-P1 [7]) | drug sensitivity score (MDA-MB-468 [8]) | normalised viability (CAL-51 [9]; 3000 nM) [%] | normalised viability (HDQ-P1 [10]; 3000 nM) [%] | further results |
| --- | --- | --- | --- | --- | --- | --- | --- | --- | --- | --- | --- | --- | --- | --- | --- | --- | --- | --- | --- | --- | --- |
| COc1ccc(-c2ccc3c(N4CCOC[C@@H]4C)nc(N4CCOC[C@@H]4C)nc3n2)cc1CO [AZD8055] | 23.6 | 20.9 | 23.6 | 21.4 | 14.5 | 29 | 28 | 28.6 | 20 | 22.4 | 15.6 | 28.8 | 25 | 18.1 | 27.6 | 21.7 | 23.9 | 16.8 | 10.5 | 21.8 | normalised viability (MDA-MB-231 [11]; 1 nM): 98.3%; normalised viability (MDA-MB-453 [12]; 1 nM): 89.3%; normalised viability (CAL-148 [13]; 1 nM): 94.6%; normalised viability (SK-BR-3 [14]; 1 nM): 103%; normalised viability (CAL-120 [15]; 1 nM): 93.2%; normalised viability (MDA-MB-468 [16]; 1 nM): 109% |
| C[C@]12CC[C@H](O)CC1=CC[C@@H]1[C@@H]2CC[C@]2(C)C(c3cccnc3)=CC[C@@H]12 [Abiraterone] | 0 | 0 | 0 | 0 | 0 | 0 | 0 | 0 | 0 | 0 | 0 | 0 | 0 | 0 | 0 | 0 | 0 | 0 | – | – | normalised viability (CAL-51 [9]; 1500 nM): 106%; normalised viability (HDQ-P1 [10]; 1500 nM): 125%; normalised viability (MDA-MB-231 [11]; 0.5 nM): 96%; normalised viability (MDA-MB-453 [12]; 0.5 nM): 108%; normalised viability (CAL-148 [13]; 0.5 nM): 103%; normalised viability (SK-BR-3 [14]; 0.5 nM): 96.1%; normalised viability (CAL-120 [15]; 0.5 nM): 78.9%; normalised viability (MDA-MB-468 [16]; 0.5 nM): 102% |
| CN(C)CCN1C(=O)c2cccc3cc(N)cc(c23)C1=O [Amonafide] | 3.78 | 5.45 | 1.1 | 7.74 | 1.04 | 4.67 | 7.32 | 2.78 | 0.749 | 0.97 | 3.57 | 5.33 | 5.69 | 0.876 | 1.69 | 7.96 | 2.28 | 1.26 | 55.7 | 79.6 | normalised viability (MDA-MB-231 [11]; 1 nM): 93.1%; normalised viability (MDA-MB-453 [12]; 1 nM): 87.3%; normalised viability (CAL-148 [13]; 1 nM): 89.9%; normalised viability (SK-BR-3 [14]; 1 nM): 101%; normalised viability (CAL-120 [15]; 1 nM): 78.7%; normalised viability (MDA-MB-468 [16]; 1 nM): 110% |
| CC(C)(C#N)c1cc(Cn2cncn2)cc(C(C)(C)C#N)c1 [Anastrozole] | 0 | 0 | 0 | 0 | 0 | 0 | 0 | 0 | 0 | 0 | 0 | 0 | 0 | 0 | 0 | 0 | 0 | 0 | 108 | 85.3 | normalised viability (MDA-MB-231 [11]; 1 nM): 91.7%; normalised viability (MDA-MB-453 [12]; 1 nM): 98.4%; normalised viability (CAL-148 [13]; 1 nM): 99%; normalised viability (SK-BR-3 [14]; 1 nM): 97.7%; normalised viability (CAL-120 [15]; 1 nM): 88.8%; normalised viability (MDA-MB-468 [16]; 1 nM): 97.9% |
| O=C(O)CCCc1ccc(N(CCCl)CCCl)cc1 [Chlorambucil] | 0 | 0 | 0 | 0 | 0 | 0 | 0 | 0 | 0 | 0 | 0 | 0 | 0 | 0 | 0 | 6.58 | 0 | 4.32 | 115 | 107 | normalised viability (MDA-MB-231 [11]; 1 nM): 106%; normalised viability (MDA-MB-453 [12]; 1 nM): 109%; normalised viability (CAL-148 [13]; 1 nM): 113%; normalised viability (SK-BR-3 [14]; 1 nM): 101%; normalised viability (CAL-120 [15]; 1 nM): 96.6%; normalised viability (MDA-MB-468 [16]; 1 nM): 95.2% |
| CO[C@H]1C[C@@H]2CC[C@@H](C)[C@@](O)(O2)C(=O)C(=O)N2CCCC[C@H]2C(=O)O[C@H]([C@H](C)C[C@@H]2CC[C@@H](OCCO)[C@H](OC)C2)CC(=O)[C@H](C)/C=C(\C)[C@@H](O)[C@@H](OC)C(=O)[C@H](C)C[C@H](C)/C=C/C=C/C=C/1C [Everolimus] | 15 and 16.7 | 12.8 and 16.3 | – | – | – | 29.7 and 31.6 | 23 and 25.5 | 16.9 and 20.1 | 13.2 and 16 | 9.4 and 21.3 | 0 | 22.7 and 22.2 | 19.7 and 24.1 | – | 20 and 19.4 | – | – | 6.16 and 13.5 | – | – | normalised viability (CAL-51 [9]; 300 nM): 40.4% and 43.4%; normalised viability (HDQ-P1 [10]; 300 nM): 72.9% and 72.6%; normalised viability (MDA-MB-231 [11]; 0.1 nM): 94.9% and 73.3%; normalised viability (MDA-MB-453 [12]; 0.1 nM): 93.7% and 90%; normalised viability (CAL-148 [13]; 0.1 nM): 93.9% and 95.7%; normalised viability (SK-BR-3 [14]; 0.1 nM): 95.7% and 89.7%; normalised viability (CAL-120 [15]; 0.1 nM): 97.4% and 80.8%; normalised viability (MDA-MB-468 [16]; 0.1 nM): 105% and 87.7% |

— the supplement of paper PMC4862054
